# Source: patent publication US20090099217A1, “2-Aminopyrimidin-4-Ones And Their Use For Treating Or Preventing Alpha Beta-Related Pathologies” (ASTEX THERAPEUTICS LTD., priority 2006, published 2009)
# Counter-ions that a name gives are not always drawn.
# Target: T1, human β-Secretase (Homo sapiens, UniProt P56817)
# T1 construct: The soluble part of the human β-Secretase (AA 1-AA 460) was cloned; Fc domain of IgG1 (C); made in house
# Assay: TR-FRET Assay
# Type: biochemical
# Conditions: sBACE-Fc enzyme 0.3 nM; substrate (Europium)CEVNLDAEFK(Qsy7) 100 nM; pH 4.5
# Description: The enzyme used in the IGEN Cleavage-, Fluorescent-, TR-FRET- and the BiaCore assay is described as follows:
# The soluble part of the human β-Secretase (AA 1-AA 460) was cloned into the ASP2-Fc10-1-IRES-GFP-neoK mammalian expression vector. The gene was fused to the Fc domain of IgG1 (affinity tag) and stably cloned into HEK 293 cells. Purified sBACE-Fc is stored in Tris buffer, pH 9.2 and has a purity of 95%.
# Dilute the enzyme (truncated form) to 6 μg/mL (stock 1.3 mg/mL) and the substrate (Europium)CEVNLDAEFK(Qsy7) to 200 nM (stock 60 μM) in reaction buffer (NaAcetate, chaps, triton x-100, EDTA pH4.5). The Biomek FX is used for all liquid handling and the enzyme and substrate solutions are kept on ice until they are placed in Biomek FX. Enzyme (9 μl) is added to the plate then 1 μl of compound in dimethylsulphoxide is added, mixed and pre-incubated for 10 minutes. Substrate (10 μl) is then added, mixed and the reaction proceeds in the dark for 15 minutes at room temperature. The reaction is stopped with the addition of Stop solution (7 μl, NaAcetate pH 9). The fluorescence of the product is measured on a Victor II plate reader with an excitation wavelength of 340 nm and an emission wavelength of 615 nm. The assay is done in a Costar 384 well round bottom, low volume, non-binding surface (Corning #3676). […]
# T1 sequence (P56817 22-460): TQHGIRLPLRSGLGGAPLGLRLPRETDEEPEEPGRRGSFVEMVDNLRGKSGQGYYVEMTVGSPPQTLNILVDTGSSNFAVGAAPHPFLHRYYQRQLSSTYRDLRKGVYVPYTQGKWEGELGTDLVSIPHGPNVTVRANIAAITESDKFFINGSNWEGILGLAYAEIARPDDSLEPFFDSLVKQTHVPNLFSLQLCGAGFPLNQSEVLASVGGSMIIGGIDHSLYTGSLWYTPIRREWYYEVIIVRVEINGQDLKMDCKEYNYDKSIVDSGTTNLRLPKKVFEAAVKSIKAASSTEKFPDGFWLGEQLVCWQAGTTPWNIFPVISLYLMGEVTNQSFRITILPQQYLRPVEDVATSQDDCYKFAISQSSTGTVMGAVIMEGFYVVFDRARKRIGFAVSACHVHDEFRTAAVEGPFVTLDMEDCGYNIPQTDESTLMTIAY
compound,measurement,value
"CN1C(=O)CC(C)(CCc2cccc(-c3ccnc(Cl)c3)c2)N=C1N (centres unmarked) [Example 20, 2-Amino-6-{2-[3-(2-chloropyridin-4-yl)phenyl]ethyl}-3,6-dimethyl-5,6-dihydropyrimidin-4(3H)-one hydrochloride]",IC50,114 nM
"COc1cncc(-c2cccc(C3(C)CC(=O)N(C)C(N)=N3)c2)c1 (centres unmarked) [Example 21, 2-Amino-6-[3-(5-methoxypyridin-3-yl)phenyl]-3,6-dimethyl-5,6-dihydropyrimidin-4(3H)-one hydrochloride]",IC50,316 nM
